{"source": "patent US20010046979A1", "about": "“Acidic antimicrobial compositions for treating food and food contact surfaces and methods of use thereof” (priority 2000, published 2001)", "test_in_all_cases": "Antimicrobial effectiveness on inoculated broccoli, 5 minute soak", "assay_type_in_all_cases": "cell-based", "key": {"Staph aureus": {"tested_on": "Staph aureus", "details": "5 g/L", "method": "(§1) Concentrated powdered compositions E and F are prepared and dissolved in deionized and hard water (10 gpg) at a level of 5 grams of composition per Liter of water to form a dilute aqueous treatment composition. The dilute aqueous treatment compositions are then tested on broccoli samples for antimicrobial effectiveness.\n(§2) A Broccoli sample is innoculated with a bacterial solution containing ≧10^8 cfu bacterium per ml. Application of 100 microliters of this solution to the surface results in approximately 10^6 to 10^7 cfu per broccoli piece. Equal amounts of small spots are deposited to facilitate drying. After 30 minutes dry time the sample is placed in 50 ml of the dilute aqueous treatment composition for a 5 minute soak. After the 5 minute soak the sample is transferred to 50 ml of a neutralizer before being stomached for 2 minutes and subsequently plated to enumerate the organisms surviving the treatments. Suprisingly the acid-anionic system maintained equal or better antimicrobial activity vs. 200 ppm hypochlorite bleach over the range from 0 to 10 gpg, as shown by the data in the following Tables."}, "E-Coli": {"tested_on": "E-Coli", "details": "5 g/L", "method": "as §1, §2"}, "Salmonella": {"tested_on": "Salmonella", "details": "0 gpg water", "method": "as §1, §2\n(§3) Composition E is further tested on Salmonella and Listeria on broccoli with similar results."}, "Listeria": {"tested_on": "Listeria", "details": "0 gpg water", "method": "as §1, §2, §3"}}, "data": [{"smiles": "[Na+].[O-]Cl", "note": "[200 ppm NaOCl, NaOCl]", "values": [{"measurement": "Log Reduction (greater than water alone) in 5 minutes", "setting": "Staph aureus; 0 gpg water", "result": 1.08, "unit": "log"}, {"measurement": "Log Reduction in 5 minutes", "setting": "Staph aureus; 0 gpg water", "result": 1.5, "unit": "log"}, {"measurement": "Log Reduction (greater than water alone) in 5 minutes", "setting": "Staph aureus; 10 gpg water", "result": 0.89, "unit": "log"}, {"measurement": "Log Reduction in 5 minutes", "setting": "Staph aureus; 10 gpg water", "result": 1.3, "unit": "log"}, {"measurement": "Log Reduction (greater than water alone) in 5 minutes", "setting": "E-Coli; 0 gpg water", "result": 0.86, "unit": "log"}, {"measurement": "Log Reduction in 5 minutes", "setting": "E-Coli; 0 gpg water", "result": 1.2, "unit": "log"}, {"measurement": "Log Reduction (greater than water alone) in 5 minutes", "setting": "E-Coli; 10 gpg water", "result": 0.93, "unit": "log"}, {"measurement": "Log Reduction in 5 minutes", "setting": "E-Coli; 10 gpg water", "result": 1.3, "unit": "log"}, {"measurement": "Log Reduction (greater than water alone) in 5 minutes", "setting": "Salmonella", "result": 0.67, "unit": "log"}, {"measurement": "Log Reduction (greater than water alone) in 5 minutes", "setting": "Listeria", "result": 0.77, "unit": "log"}]}]}
